Reference: patent publication US11713309B2, “Solid forms of Cerdulatinib” (Alexion Pharmaceuticals, Inc., priority 2018, dated 2023)
Where a name gives a salt, the structure may show the parent alone. One block for each compound: values may come before it.

Experiments:
Format in all cases: physicochemical
[1] = Thermodynamic aqueous solubility by HPLC; conditions: HPLC grade water, 25° C., 24 hours, second scale up material
Procedure: The suspension was equilibrated at 25° C. for 24 hours. The suspension was then passed through a filter into an HPLC vial. The filtrate was then diluted by an appropriate factor. Quantification was executed by HPLC with reference to a standard solution of approximately 1 mg·mL^−1 in acetonitrile:water (1:1). Different volumes of the standard, diluted and undiluted sample solutions were injected. […] HPLC method parameters are described in Table 1 and Table 2.
Analysis was performed on an Agilent 1100 series liquid chromatography, equipped with a UV detector (DAD or VWD) @ 254 nm and using Chemstation Rev.B.01.03 software for data processing.
(§1) The solubility of the salts/co-crystals of Compound I prepared from the second scale up process was analyzed. The materials recovered after the solubility analysis were evaluated by XRPD to observe any form changes.

[2] = XRPD form evaluation of materials recovered after solubility analysis; conditions: aqueous solubility analysis, second scale up material
Procedure: as §1

[3] = Gravimetric vapor sorption (GVS) hygroscopicity
Procedure: Sorption isotherms were obtained using a Hiden Isochema moisture sorption analyser (model IGAsorp), controlled by IGAsorp Systems Software v6.50.48. The sample was maintained at a constant temperature (25° C.) by the instrument controls. The humidity was controlled by mixing streams of dry and wet nitrogen, with a total flow of 250 mL·min^−1. The instrument was verified for relative humidity content by measuring three calibrated Rotronic salt solutions (10-50-88%). The weight change of the sample was monitored as a function of humidity by a microbalance (accuracy+/−0.005 mg). A defined amount of sample was placed in a tared mesh stainless steel basket under ambient conditions. A full experimental cycle consisted of two scans (sorption and desorption) at a constant temperature (25° C.) and 10% RH intervals over a 10-90% range (90 minutes for each humidity level).
The hygroscopicity of the esylate, mesylate, HCl, and sulfate salts/co-crystals of Compound I formed via the first scale up process was analyzed. All hygroscopicity experiments covered a wide range of humidity (0 to about 90% relative humidity) and were performed at about 25° C. to assess behavior.

[4] = Moisture uptake study of Compound I HCl amorphous at ambient conditions
[5] = Slurry maturations in various solvents (form reproducibility/stability); conditions: cycling about 25 to about 50° C., about 4 days
Procedure: A series of slurry maturations in various solvents was performed to further analyze the form reproducibility/stability of the esylate, mesylate, HCl, and sulfate salts/co-crystals of Compound I. The solvents chosen were acetonitrile, EtOAc, ethanol, and IPA. The input materials were the salts/co-crystals of Compound I formed via the second scale up process. About 20 mg of each sample was charged to reflux tubes and heated with temperature cycling between about 25 and about 50° C. for about 4 days. The resulting materials were isolated by filtration and dried in vacuo at about 40° C. The results of the slurry maturations for the resulting HCl and mesylate salts/co-crystals are presented in subsections (a)-(d) below. The data for the resulting esylate and sulfate salts/co-crystals of Compound have been omitted due to notable form variation.

[6] = Thermodynamic pH-solubility profile; conditions: 7 days of shaking, about 37° C. water bath
Description: A thermodynamic pH-solubility profile of Compound I HCl Form I in various buffer or non-buffer solutions is further provided in FIG. 61. FIG. 61 additionally includes the thermodynamic pH-solubility profile of Compound I free base. It is of note that no data is shown in the profile of Compound I free base below a pH of about 2.0, as Compound I free base converted to Compound I HCl Form I below a pH of about 2.0. Similarly, no data is shown in the profile of Compound I HCl Form I above a pH of about 3.0, as Compound I HCl Form I converted to Compound I free base above a pH of about 3.0.

[7] = Slurry competition of free base forms; conditions: from 5° C. to 50° C.
Procedure: Slurry competition was performed to evaluate the stability of Compound I free base Form II and Type E. A mixture of Compound I free base Form II and Type E were added into 1.0 mL of saturated EtOH or MEK solution (slurry of Form I at 5° C./RT/50° C. overnight). The suspensions were stirred at target temperatures.
Slurry competition was performed to evaluate the stability of free base Form I and Form II. A mixture of free base Form I and Form II were added into 1.0 mL of saturated EtOH or MEK solution (slurry of Form I at 5° C./RT/50° C. overnight). The suspensions were stirred at target temperatures for 3 days.

SMILES: CCS(=O)(=O)N1CCN(c2ccc(Nc3ncc(C(N)=O)c(NC4CC4)n3)cc2)CC1 [Compound I HCl amorphous, 4-(cyclopropylamino)-2-(4-(4-(ethylsulfonyl)piperazin-1-yl)phenylamino)pyrimidine-5-carboxamide]
- GVS mass change ([3]; above about 40% RH, most markedly above about 80% RH): large increase in mass
- Crystallinity on exposure to ambient conditions [4]: gradual increase in crystallinity

SMILES: CCS(=O)(=O)N1CCN(c2ccc(Nc3ncc(C(N)=O)c(NC4CC4)n3)cc2)CC1 [Compound I mesylate Form III, 4-(cyclopropylamino)-2-(4-(4-(ethylsulfonyl)piperazin-1-yl)phenylamino)pyrimidine-5-carboxamide]
- Form after slurry maturation (XRPD) ([5]; acetonitrile, EtOAc, ethanol, IPA, listed as Compound I mesylate (mono-mesylate) Form III): mixture of forms comprising Compound I mesylate Form III and other forms
- solubility ([1]; listed as Comp. I Mesylate Similar to Form III): 2320 µg/mL
- Form change on solubility analysis (XRPD post vs pre) [2]: same form, which is different than the forms of either input material

SMILES: CCS(=O)(=O)N1CCN(c2ccc(Nc3ncc(C(N)=O)c(NC4CC4)n3)cc2)CC1 [Compound I HCl Form II, 4-(cyclopropylamino)-2-(4-(4-(ethylsulfonyl)piperazin-1-yl)phenylamino)pyrimidine-5-carboxamide]
- Form after slurry maturation (XRPD) ([5]; IMA): conversion to Compound I Form I
- Form after slurry maturation (XRPD) ([5]; IPA): conversion to Compound I Form I, yet retains some mixed features
- Form after slurry maturation (XRPD) ([5]; acetonitrile and EtOAc): mixture of Compound I Form I, Compound I Form II, and possibly other forms
- solubility ([1]; listed as Comp. I HCl (formed using dry HCl) Form II): 120 µg/mL
- Form change on solubility analysis (XRPD post vs pre) [2]: form change to Compound I HCl Form I

SMILES: CCS(=O)(=O)N1CCN(c2ccc(Nc3ncc(C(N)=O)c(NC4CC4)n3)cc2)CC1 [Compound I Form II, 4-(cyclopropylamino)-2-(4-(4-(ethylsulfonyl)piperazin-1-yl)phenylamino)pyrimidine-5-carboxamide]
- Relative thermodynamic stability (slurry competition with Form I) [7]: more thermodynamically stable
- Relative thermodynamic stability (slurry competition with Type E) [7]: more thermodynamically stable than Type E

Second part, led by results:

- solubility ([1]; listed as Comp. I Sulfate Similar to Form I): 10 µg/mL
SMILES: CCS(=O)(=O)N1CCN(c2ccc(Nc3ncc(C(N)=O)c(NC4CC4)n3)cc2)CC1 [Compound I sulfate Form I, 4-(cyclopropylamino)-2-(4-(4-(ethylsulfonyl)piperazin-1-yl)phenylamino)pyrimidine-5-carboxamide]
- Form change on solubility analysis (XRPD post vs pre) ([2]; listed as Compound I sulfate prepared from IPA): form change to Compound I sulfate Form II

- solubility ([1]; listed as Comp. I Sulfate Similar to Form II): 7 µg/mL
- GVS water absorbed ([3]; 25° C., first scale up material, listed as Comp. I Sulfate Similar to Form II): About 0.5 mg
- GVS total weight loss ([3]; dried to 0% RH): about 5.9%
- Crystalline form by XRPD post GVS analysis ([3]; exposure to humidity 0 to about 90% RH, about 25° C., listed as crystalline Compound I sulfate sample): slightly increased the crystallinity
- Hygroscopicity (qualitative) ([3]; second scale up material): facile pick-up of surface moisture
- GVS gradual weight gain ([3]; up to about 80% RH): about 4.2%
- Form change on solubility analysis (XRPD post vs pre) ([2]; listed as Compound I sulfate prepared from water): no form change
SMILES: CCS(=O)(=O)N1CCN(c2ccc(Nc3ncc(C(N)=O)c(NC4CC4)n3)cc2)CC1 [Compound I sulfate Form II, 4-(cyclopropylamino)-2-(4-(4-(ethylsulfonyl)piperazin-1-yl)phenylamino)pyrimidine-5-carboxamide]

- pH range in which Compound I free base converted to Compound I HCl Form I [6]: < 2.0
SMILES: CCS(=O)(=O)N1CCN(c2ccc(Nc3ncc(C(N)=O)c(NC4CC4)n3)cc2)CC1 [Compound I, 4-(cyclopropylamino)-2-((4-(4-(ethylsulfonyl)piperazin-1-yl)phenyl)amino)pyrimidine-5-carboxamide]
